In patent US20070066682A1, “Arylalkylamine vanadium (V) salts for the treatment and/or prevention of Diabetes mellitus” (priority 2005, published 2007):

Experiments:
isolated rat adipocytes = assay: Glucose transport (2-deoxyglucose uptake) in isolated rat adipocytes; format: cell-based; settings: isolated rat adipocytes; for stimulation of glucose transport in the presence of semicarbazide: 1 mM semicarbazide; for stimulation of glucose transport (2-DG uptake): 45 min incubation
Protocol: In order to determine whether salts formed by vanadate and benzylamine could produce an insulin mimetic effect, the effect of increasing concentrations of hexaquis(benzylammonium) decavanadate on glucose transport activity in isolated rat adipocytes was tested. […] In similar assays, the activity of hexaquis(benzylammonium) decavanadate, pentaquis(benzylammonium) decavanadate and tetraquis(benzylammonium) decavanadate on glucose transport activity in isolated rat adipocytes were analyzed.
To determine the possible insulin mimetic effect of certain vanadium arylalkylamines, the capacity of these compounds to enhance glucose transport in isolated rat adipocytes was tested. Adipose cells from Wistar rats were incubated for 45 minutes in basal conditions (Basal) or in the presence of 100 nM insulin (Ins), and different concentrations of. hexaquis(benzylammonium) decavanadate (B6V10) in the absence or in the presence of 1 mM semicarbazide (SCZ). Subsequently, 2-DG transport was measured over a 5 min. interval.
The effects of the three tested compounds (B6V10, B5V10 and B4V10) were compared. Adipose cells from Wistar rats were incubated for 45 minutes in basal conditions (Basal) or in the presence of 100 nM insulin (Ins), and different concentrations of. decavanadate (V10), hexaquis(benzylammonium) decavanadate (B6V10), pentaquis(benzylammonium) decavanadate (B5V10) or tetraquis(benzylammonium) decavanadate (B4V10) in the absence or in the presence of 1 mM semicarbazide (SCZ). 2-DG transport was measured over 5 min. intervals. […]
(§1) The effects of incubation with semicarbazide or phosphatidylinositol 3-kinase inhibitors were also investigated. Adipose cells were incubated with B6V10 (25 μM, 45 min) in the absence or presence of wortmannin (2 μM, 45 min), LY294002 (10 μM, 45 min) or semicarbazide (1 mM, 45 min) and thereafter 2-deoxyglucose uptake was determined during 5 min.

[1] = tested on: streptozotocin-induced diabetic rats; assay: Chronic subcutaneous (osmotic minipump) treatment of streptozotocin (45 mg/kg) diabetic rats, glycemia; format: in vivo, rat; settings: 2.5 μmol/kg/day by osmotic minipumps, about two weeks, STZ 45 mg/kg rats
Protocol: (§2) Male Wistar rats weighting 180-220 g were purchased from Harlan (Interfauna Ibèrica S.A., Spain). Diabetes was induced by a single intraperitoneal injection of a freshly prepared solution of streptozotocin (in some studies the dose was 45 mg/kg body weight and in some others 100 mg/kg body weight dissolved in 50 mM citrate buffer, pH 4.5). Only diabetic animals with glycemia above 300 mg/dl were used. The animals were housed in animal quarters at 22° C., with a 12 h light/12 h dark cycle and were fed ad libitum. All procedures used were approved by the animal ethical committee of the University of Barcelona, Spain. Male mice C57 BL/Ks bearing the db/db mutation (Jackson Laboratories, Bar Harbor, Me.) were purchased from Harlan France (Gannat, France). C57BL/6J male mice were assigned for 16 weeks to very high-fat diet containing (in kcal): 72% from fat, 28% from proteins and <1% from carbohydrates (Burcelin et al., 2002, Am. J. Physiol. Endocrinol. Metab 282: E834-E842).
(§3) Osmotic minipumps delivering B6V10 (2.5 μmol/kg body wt/day) or decavanadate (2.5 μmol/kg body wt/day) were implanted subcutaneously in diabetic rats anaesthetised by ketamine hydrochloride (95 mg/kg) and xylasine (10 mg/kg). […] Glycemia was measured on arterio-venous blood collected from the tail vessels at 09:00 am for two weeks, before the administration of vanadate. Insulin concentrations were determined before and after treatment. In another set of experiments, B6V10 was orally administered at a single dose of 5 μmol/kg/day during the first week and 10 μmol/kg/day during 2 additional weeks by gastric gavage. A control group received the corresponding decavanadate salt in the absence of benzylamine. At the end of the treatment, animals were sacrificed and the liver, fat pad, heart and lung were kept at −80° C. and the plasma at −20° C. until their use for in vitro analysis.
(§4) In glucose tolerance tests and in chronic treatments, circulating glucose concentrations were determined by a rapid glucose analyser (Accutrend® Sensor Comfort, Roche, Basel. Switzerland). Plasma insulin (IRI) concentration was determined by ELISA method using a kit obtained from Crystal Chem Inc. (Downers Grove, Ill.). Plasma triglycerides (Biosystems, Barcelona, Spain) and NEFAS (Wako Chemicals, Neuss, Germany) were determined with standard […] methods.
The effect of chronic administration of hexaquis(benzylammonium) decavanadate on glycemia from diabetic rats was determined. Thus, diabetes was induced in rats by intravenous administration of streptozotocin, which destroys the β-pancreatic cells that produce insulin.
Chronic in vivo efficacy of B6V10 was evaluated in streptozotocin-induced diabetic rats and in db/db mice. Streptozotocin-induced (45 mg/kg) diabetic rats were subcutaneously treated with hexaquis(benzylammonium) decavanadate (2.5 μmol/kg) (B6V10, solid squares, FIG. 8A) or with decavanadate (2.5 μmol/kg) (V10, open circles, FIG. 8A) delivered subcutaneously by osmotic minipumps implanted in the dorsal region. Diabetic rats were also sham-operated (untreated, solid diamonds, FIG. 8A). […] These experiments were repeated using an oral administration protocol. Streptozotocin-induced (45 mg/kg) diabetic rats were orally treated with hexaquis(benzylammonium) decavanadate (5 μmol/kg from day 0 to day 7 and 10 μmol/kg/day from day 7 to day 17) (B6V10, solid squares, FIG. 8B) or received decavanadate (10 μmol/kg) (V10, open circles, FIG. 8B). […]

[2] = tested on: streptozotocin-induced diabetic rats; assay: Chronic oral treatment of streptozotocin (45 mg/kg) diabetic rats, glycemia; format: in vivo, rat; settings: for glycemia during chronic oral treatment: daily oral, 17 days (5 then 10 μmol/kg/day), STZ 45 mg/kg rats
Protocol: as §2, §3, §4
The effect of the oral administration of hexaquis(benzylammonium) decavanadate on glycemia from diabetic rats was also studied. Diabetes was induced in rats by intravenous administration of streptozotocin, and subsequently, a hexaquis(benzylammonium) decavanadate or sodium decavanadate unique dose was administered to the rats. […] After seven days of treatment, the dose was increased at 10 μmol/kg/day which was maintained for an additional ten days. […] Thus, glycemia in sodium decavanadate treated rats was approximately 450 mg/dl and glycemia of hexaquis(benzylammonium) decavanadate treated rats was approximately 250 mg/dl.
Chronic in vivo efficacy of B6V10 was evaluated in streptozotocin-induced diabetic rats and in db/db mice. Streptozotocin-induced (45 mg/kg) diabetic rats were subcutaneously treated with hexaquis(benzylammonium) decavanadate (2.5 μmol/kg) (B6V10, solid squares, FIG. 8A) or with decavanadate (2.5 μmol/kg) (V10, open circles, FIG. 8A) delivered subcutaneously by osmotic minipumps implanted in the dorsal region. Diabetic rats were also sham-operated (untreated, solid diamonds, FIG. 8A). […] These experiments were repeated using an oral administration protocol. Streptozotocin-induced (45 mg/kg) diabetic rats were orally treated with hexaquis(benzylammonium) decavanadate (5 μmol/kg from day 0 to day 7 and 10 μmol/kg/day from day 7 to day 17) (B6V10, solid squares, FIG. 8B) or received decavanadate (10 μmol/kg) (V10, open circles, FIG. 8B). Nondiabetic rats were also untreated (solid triangles, FIG. 8B).

[3] = tested on: streptozotocin-induced diabetic rat with undetectable circulating insulin; assay: Subcutaneous treatment of streptozotocin (100 mg/kg) diabetic rats with undetectable circulating insulin; format: in vivo; settings: 2.5 μmol/kg subcutaneous minipumps, STZ 100 mg/kg
Protocol: as §2, §4
To this end, rats were made diabetic by the injection of a large dose of streptozotocin (100 mg/kg) that eliminates β-pancreatic insulin content. […] These streptozotocin-induced diabetic rats were subcutaneously treated with B6V10 (2.5 μmol/kg) (solid squares, FIG. 9A) delivered by osmotic minipumps or left untreated (solid circles, FIG. 9A). Sham-operated nondiabetic rats were also untreated (solid triangles, FIG. 9A).
The concentration of circulating glucose under these conditions was also assayed. After 28 days of treating diabetic rats with hexaquis(benzylammonium) decavanadate (2.5 μmol/kg) (wide striped bars, FIG. 9B), or with decavanadate (close striped bars, FIG. 9B) delivered by osmotic minipumps, plasma insulin and glucose were measured. Untreated diabetic (solid bars, FIG. 9B) or nondiabetic rats (open bars, FIG. 9B) were similarly assayed as controls.

protein kinase B = assay: Protein kinase B phosphorylation in isolated rat adipocytes; format: cell-based; settings: 25 μM, rat adipocytes
Protocol: Isolated fat cells were disrupted for total membrane preparation by hypo-osmotic lysis in a 20 mM HES buffer and an antiprotease and antiphosphatase cocktail as reported by Abella et al. (2003, Diabetes 52: 1004-1013). Protein concentrations were determined by the Bradford method (Bradford, 1976, Anal. Biochem. 72: 248-254) with gamma-globulin as protein concentration standard. Immunoprecipitation and immunoblot assays were performed as previously described by Abella et al. (2004, Id.) with the use of a monoclonal antiphosphotyrosine antibody for the immunoprecipitation and an anti-insulin receptor antibody for immunoblotting, respectively. SDS-polyacrylamide gel electrophoresis was performed on membrane proteins following conventional procedures. Proteins were transferred to Immobilon and immunoblotting was performed as reported by Castello et al. (1994, J. Biol. Chem. 269: 5905-5912).
The mechanism of action of B6V10 was investigated in isolated rat adipocytes. Adipose cells from Wistar rats were incubated for different times in the presence of 25 μM hexaquis(benzylammonium) decavanadate (B6V10). Cells were also incubated in the presence of insulin (100 nM, 45 min), decavanadate (25 μM, 45 min) or semicarbazide (1 mM, 45 min). Subsequently, 2-deoxyglucose uptake (results shown in FIG. 7A), tyrosine phosphorylation of insulin receptor (FIG. 7B), phospho-Thr^308-protein kinase B (FIG. 7C) and phospho-Ser^473-protein kinase B (FIG. 7D) was measured. […] The phosphorylation of protein kinase B induced by B6V10 was parallel to activation of glucose transport (FIG. 7C and 7D).
as §1

Substance | stimulation of glucose transport in the presence of semicarbazide (isolated rat adipocytes; dihydrate) | stimulation of glucose transport in the presence of semicarbazide (isolated rat adipocytes; listed as tetraquis(benzylammonium) decavanadate, Dihydrate) | stimulation of glucose transport (2-DG uptake) (isolated rat adipocytes) | stimulation of glucose transport in the presence of semicarbazide (isolated rat adipocytes; listed as pentaquis(benzylammonium) decavanadate, dihydrate) | glycemia during chronic subcutaneous treatment [1] | glycemia during chronic subcutaneous treatment ([1]; listed as sodium decavanadate) | glycemia during chronic oral treatment [2] | glycemia during chronic oral treatment ([2]; listed as sodium decavanadate) | glycemia ([2]; oral treatment, after dose increase to 10 μmol/kg/day) | glycemia in diabetic rats with undetectable insulin [3] | protein kinase B phosphorylation (protein kinase B)
Tetraquis(Benzylammonium) Decavanadate (V) Dihydrate [Entry B4V10] | blocked in the presence of semicarbazide | this effect was inhibited | pronounced stimulation on glucose transport |  |  |  |  |  |  |  | 
pentaquis(benzylammonium) decavanadate (V) dihydrate [Entry B5V10] | blocked in the presence of semicarbazide |  | pronounced stimulation on glucose transport | this effect was inhibited |  |  |  |  |  |  | 
sodium decavanadate [Entry V10, reference compound] |  |  | did not stimulate glucose transport |  | did not alter glycemia | did not modify substantially its glycemia | did not alter glycemia | not affected substantially | approximately 450 mg/dl | did not show any change in circulating glucose | not observed
